Data: patent publication US20220273664A1, “Mitochondrial Targeted Releasable Linker” (THE GOVERNING COUNCIL OF THE UNIVERSITY OF TORONTO, priority 2017, published 2022)

Experiments:
K562 cells [1] = assay: toxicity at different time points in K562 cells; format: cell-based; conditions: K562 leukemia cells, up to 48 hours
Source text: FIG. 7A is a graphical representation of the toxicity of compound 5 at different time points in K562 cells.
FIG. 7B is a graphical representation of the toxicity of compound 6 at different time points in K562 cells.
FIG. 10 is a graphical representation of the toxicity of luminespib (compound 7, as shown in FIG. 6C) at different time points in K562 cells.

K562 cells [2] = assay: apoptosis measured via Annexin V staining; format: cell-based; conditions: 2.5 μM, 24 hours
Method: FIG. 8A is a chart illustrating apoptosis as measured via Annexin V staining of K562 cells treated for 24 hours with 2.5 μM of the compounds indicated. Cell populations were gated with annexin V+/Sytox red− cells as early apoptotic, and annexin V+/Sytox red+ cells as late apoptotic.
As controls, the parent compound luminespib (FIG. 8C, compound 7), and the empty disulfide vector (FIG. 6D) were also tested. The cells were treated with 2.5 μM of each compound.

For `CCNC(=O)c1noc(-c2cc(C(C)C)c(O)cc2O)c1-c1ccc(CN2CCOCC2)cc1` [luminespib, 5-(2,4-Dihydroxy-5-isopropylphenyl)-N-ethyl-4-(4-(morpholinomethyl)phenyl)isoxazole-3-carboxamide], the “cell toxicity over time” value (K562 cells [1]) was “growth inhibition” and the “apoptosis (early and late apoptotic cell populations)” value (K562 cells [2]) was “no increase”.
